Laboratory results: ChEMBL document CHEMBL1140830, “Ergoline derivatives as highly potent and selective antagonists at the somatostatin sst 1 receptor” (Bioorg Med Chem Lett, 2008)

Key:
[1] = molecular target: Somatostatin receptor type 2 (Rattus norvegicus, UniProt P30680); test: Displacement of [125I][Tyr3]octreotide from sst2 receptor in rat cortex
[2] = molecular target: Somatostatin receptor type 1 (Rattus norvegicus, UniProt P28646); test: Displacement of [125I]SRIF14 from sst1 receptor in rat cortex
Sequence of Somatostatin receptor type 1 (Rattus norvegicus, UniProt P28646) (P28646 whole entry): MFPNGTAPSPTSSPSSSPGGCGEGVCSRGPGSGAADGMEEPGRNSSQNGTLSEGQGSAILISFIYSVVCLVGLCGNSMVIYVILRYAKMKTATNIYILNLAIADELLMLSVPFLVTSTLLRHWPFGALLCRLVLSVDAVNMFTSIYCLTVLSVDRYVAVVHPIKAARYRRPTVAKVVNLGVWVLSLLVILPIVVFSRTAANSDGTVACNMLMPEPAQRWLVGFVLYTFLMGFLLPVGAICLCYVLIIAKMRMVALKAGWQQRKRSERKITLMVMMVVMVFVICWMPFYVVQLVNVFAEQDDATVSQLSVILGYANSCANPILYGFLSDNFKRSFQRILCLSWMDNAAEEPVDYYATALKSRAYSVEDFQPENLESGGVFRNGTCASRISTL

[3] = molecular target: Somatostatin receptor type 4 (Homo sapiens, UniProt P31391); test: Binding affinity to human recombinant sst4 receptor
Sequence of Somatostatin receptor type 4 (P31391 whole entry): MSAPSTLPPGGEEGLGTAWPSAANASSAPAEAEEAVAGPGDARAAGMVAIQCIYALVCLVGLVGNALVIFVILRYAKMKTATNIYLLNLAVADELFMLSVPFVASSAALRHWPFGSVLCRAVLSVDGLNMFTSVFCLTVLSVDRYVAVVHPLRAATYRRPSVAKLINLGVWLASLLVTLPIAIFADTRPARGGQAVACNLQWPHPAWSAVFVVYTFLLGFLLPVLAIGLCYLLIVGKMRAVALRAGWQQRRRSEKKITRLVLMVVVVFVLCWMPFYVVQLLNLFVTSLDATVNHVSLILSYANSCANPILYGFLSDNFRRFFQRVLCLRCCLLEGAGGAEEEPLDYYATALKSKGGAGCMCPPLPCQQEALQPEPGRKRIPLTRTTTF

D(2) dopamine receptor = D(2) dopamine receptor (Homo sapiens, UniProt P14416); test: Binding affinity to human dopamine D2 receptor
Sequence of D(2) dopamine receptor (P14416 whole entry): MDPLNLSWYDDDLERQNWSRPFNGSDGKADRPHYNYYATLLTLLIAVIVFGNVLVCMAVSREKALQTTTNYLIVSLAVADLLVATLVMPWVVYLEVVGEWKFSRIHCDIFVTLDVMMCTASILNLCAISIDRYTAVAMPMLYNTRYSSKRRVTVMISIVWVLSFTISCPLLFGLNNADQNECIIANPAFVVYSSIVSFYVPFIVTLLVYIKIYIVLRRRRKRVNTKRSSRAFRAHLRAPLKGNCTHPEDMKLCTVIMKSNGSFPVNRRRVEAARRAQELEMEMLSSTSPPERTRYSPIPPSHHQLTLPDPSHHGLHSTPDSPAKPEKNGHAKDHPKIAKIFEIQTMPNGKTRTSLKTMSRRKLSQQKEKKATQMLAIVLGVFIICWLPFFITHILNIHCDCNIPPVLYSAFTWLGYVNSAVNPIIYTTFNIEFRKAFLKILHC

[4] = molecular target: T1, Somatostatin receptor type 1 (Homo sapiens, UniProt P30872); test: Antagonist activity at human recombinant sst1 receptor assessed as inhibition of SRIF28-induced luciferase activity; format: functional
T1 sequence (P30872 whole entry): as the sequence (P28646 whole entry) above, with P8S, T11S, S16P, G20S, V25G, C26G, S32A, S45A, A385T, S389T counted along it

[5] = molecular target: Somatostatin receptor type 2 (Homo sapiens, UniProt P30874); test: Binding affinity to human recombinant sst2 receptor
Sequence of Somatostatin receptor type 2 (Homo sapiens, UniProt P30874) (P30874 whole entry): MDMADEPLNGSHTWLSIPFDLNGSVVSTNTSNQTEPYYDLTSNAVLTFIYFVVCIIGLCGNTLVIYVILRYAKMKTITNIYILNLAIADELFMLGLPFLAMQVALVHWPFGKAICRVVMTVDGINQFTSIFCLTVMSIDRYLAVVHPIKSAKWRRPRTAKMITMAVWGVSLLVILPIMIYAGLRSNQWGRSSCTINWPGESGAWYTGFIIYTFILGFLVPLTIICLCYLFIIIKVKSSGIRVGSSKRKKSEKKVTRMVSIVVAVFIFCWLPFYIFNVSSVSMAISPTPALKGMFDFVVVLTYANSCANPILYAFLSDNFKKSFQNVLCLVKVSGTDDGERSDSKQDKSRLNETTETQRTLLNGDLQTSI

[6] = Oral bioavailability in rat; format: ADME, organism-based; settings: in vivo
[7] = Ratio of drug level in brain to plasma in rat at 30 umol/kg after 10 mins; format: ADME; settings: brain and plasma
[8] = molecular target: T1, Somatostatin receptor type 1; test: Binding affinity to human recombinant sst1 receptor
[9] = molecular target: T2, 5-hydroxytryptamine receptor 1A (Homo sapiens, UniProt P08908); test: Binding affinity to human 5HT1A receptor
T2 sequence (P08908 whole entry): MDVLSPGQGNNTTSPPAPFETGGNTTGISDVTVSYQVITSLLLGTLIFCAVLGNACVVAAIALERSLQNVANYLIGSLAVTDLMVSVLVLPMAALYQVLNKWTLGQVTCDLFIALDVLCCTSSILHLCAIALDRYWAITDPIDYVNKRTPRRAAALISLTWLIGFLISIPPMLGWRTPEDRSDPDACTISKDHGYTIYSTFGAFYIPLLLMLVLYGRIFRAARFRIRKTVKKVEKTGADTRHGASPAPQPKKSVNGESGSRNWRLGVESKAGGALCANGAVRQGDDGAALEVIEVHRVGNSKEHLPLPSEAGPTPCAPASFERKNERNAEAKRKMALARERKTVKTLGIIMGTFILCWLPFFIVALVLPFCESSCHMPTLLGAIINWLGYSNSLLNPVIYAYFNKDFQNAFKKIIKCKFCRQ

[10] = molecular target: Somatostatin receptor type 3 (Homo sapiens, UniProt P32745); test: Binding affinity to human recombinant sst3 receptor
Sequence of Somatostatin receptor type 3 (P32745 whole entry): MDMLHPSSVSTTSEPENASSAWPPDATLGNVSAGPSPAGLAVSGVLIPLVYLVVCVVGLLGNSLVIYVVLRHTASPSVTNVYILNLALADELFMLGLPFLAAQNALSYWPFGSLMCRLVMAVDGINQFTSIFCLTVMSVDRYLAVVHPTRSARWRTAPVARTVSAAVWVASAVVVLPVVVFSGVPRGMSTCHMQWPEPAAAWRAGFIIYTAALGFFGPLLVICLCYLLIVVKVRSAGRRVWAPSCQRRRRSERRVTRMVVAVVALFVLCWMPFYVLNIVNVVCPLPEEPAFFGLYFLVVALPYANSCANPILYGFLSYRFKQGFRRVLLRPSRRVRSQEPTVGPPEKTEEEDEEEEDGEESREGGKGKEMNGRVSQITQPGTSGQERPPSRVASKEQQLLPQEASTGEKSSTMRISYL

[11] = molecular target: Somatostatin receptor type 5 (Homo sapiens, UniProt P35346); test: Binding affinity to human recombinant sst5 receptor
Sequence of Somatostatin receptor type 5 (P35346 whole entry): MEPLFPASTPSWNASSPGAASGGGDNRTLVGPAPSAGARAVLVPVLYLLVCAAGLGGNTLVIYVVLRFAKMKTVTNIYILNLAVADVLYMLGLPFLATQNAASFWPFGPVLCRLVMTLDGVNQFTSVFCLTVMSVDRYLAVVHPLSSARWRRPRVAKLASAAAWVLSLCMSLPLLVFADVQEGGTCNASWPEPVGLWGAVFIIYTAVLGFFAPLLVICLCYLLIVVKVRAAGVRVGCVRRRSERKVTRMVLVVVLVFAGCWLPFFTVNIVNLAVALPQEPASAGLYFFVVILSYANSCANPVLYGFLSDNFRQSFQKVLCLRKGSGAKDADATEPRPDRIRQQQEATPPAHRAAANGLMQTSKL

D(4) dopamine receptor = molecular target: T3, D(4) dopamine receptor (Homo sapiens, UniProt P21917); test: Binding affinity to human dopamine D4 receptor
T3 sequence (P21917 whole entry): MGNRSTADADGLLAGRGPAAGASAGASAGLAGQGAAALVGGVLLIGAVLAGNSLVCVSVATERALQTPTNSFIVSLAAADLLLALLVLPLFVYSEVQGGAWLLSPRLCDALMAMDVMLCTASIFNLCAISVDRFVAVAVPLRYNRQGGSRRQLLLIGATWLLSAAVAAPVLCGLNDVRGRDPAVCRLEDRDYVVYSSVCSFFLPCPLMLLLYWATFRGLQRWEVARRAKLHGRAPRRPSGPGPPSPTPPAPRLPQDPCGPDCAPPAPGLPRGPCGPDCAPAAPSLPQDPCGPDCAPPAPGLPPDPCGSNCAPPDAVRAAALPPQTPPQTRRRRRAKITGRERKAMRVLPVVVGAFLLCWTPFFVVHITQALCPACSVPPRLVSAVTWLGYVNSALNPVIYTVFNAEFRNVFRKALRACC

[12] = molecular target: T1, Somatostatin receptor type 1; test: Antagonist activity at human recombinant sst1 receptor in CCl39 cells assessed as SRIF14-induced inhibition of forskolin-stimulated adenylate cyclase activity; format: functional, cell-based
[13] = Ratio of drug level in brain to plasma in rat at 30 umol/kg after 24 hrs; format: ADME; settings: brain and plasma

Sequence of Somatostatin receptor type 2 (Rattus norvegicus, UniProt P30680) (P30680 whole entry): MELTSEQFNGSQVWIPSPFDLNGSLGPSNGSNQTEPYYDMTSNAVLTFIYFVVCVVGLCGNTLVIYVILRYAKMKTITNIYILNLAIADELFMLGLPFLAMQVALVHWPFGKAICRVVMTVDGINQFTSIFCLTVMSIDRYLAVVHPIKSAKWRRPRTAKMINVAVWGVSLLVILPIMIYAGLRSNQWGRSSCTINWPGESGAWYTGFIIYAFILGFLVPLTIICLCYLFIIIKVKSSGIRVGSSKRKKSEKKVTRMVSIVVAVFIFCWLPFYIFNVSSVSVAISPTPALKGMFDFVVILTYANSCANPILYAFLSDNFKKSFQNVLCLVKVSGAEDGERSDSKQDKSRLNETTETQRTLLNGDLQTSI

SMILES | Kd [1] [nM] | Kd [2] [nM] | other results
CN1C[C@H](C(=O)N2CCN(c3ccc4nonc4c3)CC2)C[C@@H]2c3cccc4[nH]c(Cl)c(c34)C[C@H]21 | 5130 | 0.389 | 
CN1C[C@H](C(=O)N2CCN(c3ccccn3)CC2)C[C@@H]2c3cccc4[nH]c(Cl)c(c34)C[C@H]21 |  | 12.9 | 
CN1C[C@H](C(=O)N2CCN(c3ccccn3)CC2)C[C@@H]2c3cccc4[nH]c(S(C)(=O)=O)c(c34)C[C@H]21 | 7760 | 309 | 
CCN1C[C@H](C(=O)N2CCN(c3ccc(F)c(F)c3)CC2)C[C@@H]2c3cccc4[nH]c(Br)c(c34)C[C@H]21 | 13200 | 0.977 | 
CN1C[C@H](C(=O)N2CCN(c3ccccn3)CC2)C[C@@H]2c3cccc4[nH]c(I)c(c34)C[C@H]21 | 5620 | 16.6 | 
CN1C[C@H](C(=O)N2CCN(c3ccc4nonc4c3)CC2)C[C@@H]2c3cccc4[nH]c(Br)c(c34)C[C@H]21 | 6460 | 0.372 | Kd [3]: 3630 nM; Kd (D(2) dopamine receptor): 126 nM; pKb [4]: 9.42; Kd [5]: 6760 nM; bioavailability [6]: 48%; Kp at 10 min [7]: 0.7; Kd [8]: 1.23 nM; Kd [9]: 28.2 nM; Kd [10]: 2340 nM; Kd [11]: 6460 nM; Kd (D(4) dopamine receptor): 77.6 nM; pKb [12]: 7.62; Kp at 24 h [13]: 1.7
CN1C[C@H](C(=O)N2CCN(c3ccc([N+](=O)[O-])cc3)CC2)C[C@@H]2c3cccc4[nH]cc(c34)C[C@H]21 | 3160 | 3.89 | 
CN1C[C@H](C(=O)N2CCN(c3ccc4nsnc4n3)CC2)C[C@@H]2c3cccc4[nH]cc(c34)C[C@H]21 | 3020 | 1.02 | 
CN1C[C@H](C(=O)N2CCN(c3ccccn3)CC2)C[C@@H]2c3cccc4[nH]cc(c34)C[C@H]21 | 17800 | 14.1 | 
CCn1c(N2CCN(C(=O)[C@@H]3C[C@@H]4c5cccc6[nH]c(Br)c(c56)C[C@H]4N(C)C3)CC2)cccc1=O | 26300 | 0.282 | 
CN1C[C@H](C(=O)N2CCN(c3ccccn3)CC2)C[C@@H]2c3cccc4[nH]c([S+](C)[O-])c(c34)C[C@H]21 (stereo partly specified) | 17800 | 2630 | 
CN1C[C@H](C(=O)N2CCN(c3ccc([N+](=O)[O-])cc3)CC2)C[C@@H]2c3cccc4[nH]c(Cl)c(c34)C[C@H]21 | 8910 | 1.26 | 
CN1C[C@H](C(=O)N2CCN(c3ccc4nsnc4n3)CC2)C[C@@H]2c3cccc4[nH]c(Cl)c(c34)C[C@H]21 | 3890 | 0.24 | 
CN1C[C@H](C(=O)N2CCN(c3cccc(=O)n3C)CC2)C[C@@H]2c3cccc4[nH]cc(c34)C[C@H]21 | 7760 | 0.759 | 
CC(C)CCN1C[C@H](C(=O)N2CCN(c3ccccn3)CC2)C[C@@H]2c3cccc4[nH]c(Br)c(c34)C[C@H]21 |  | 1740 | 
CN1C[C@H](C(=O)N2CCN(c3ccc([N+](=O)[O-])cc3)CC2)C[C@@H]2c3cccc4[nH]c(Br)c(c34)C[C@H]21 | 7240 | 1.35 | 
CN1C[C@H](C(=O)N2CCN(c3ccc4nsnc4n3)CC2)C[C@@H]2c3cccc4[nH]c(Br)c(c34)C[C@H]21 | 4570 | 0.372 | 

SMILES | Kd [1] [nM] | Kd [2] [nM] | other results
CN1C[C@H](C(=O)N2CCN(c3ccccn3)CC2)C[C@@H]2c3cccc4[nH]c(Br)c(c34)C[C@H]21 | 16600 | 4.47 | 
CN1C[C@H](C(=O)N2CCN(c3ccc(Cl)cc3)CC2)C[C@@H]2c3cccc4[nH]c(Br)c(c34)C[C@H]21 | 2000 | 5.5 | 
O=C([C@@H]1C[C@@H]2c3cccc4[nH]c(Br)c(c34)C[C@H]2N(CCCO)C1)N1CCN(c2ccccn2)CC1 |  | 2340 | 
CN1C[C@H](C(=O)N2CCN(c3cccc(=O)n3C)CC2)C[C@@H]2c3cccc4[nH]c(Cl)c(c34)C[C@H]21 | 49000 | 0.389 | 
CCn1c(N2CCN(C(=O)[C@@H]3C[C@@H]4c5cccc6[nH]c(Cl)c(c56)C[C@H]4N(C)C3)CC2)cccc1=O | 12000 | 0.38 | 
CN1C[C@H](C(=O)N2CCN(c3ccc(Cl)cc3)CC2)C[C@@H]2c3cccc4[nH]c(Cl)c(c34)C[C@H]21 | 5890 | 4.17 | 
CN1C[C@H](C(=O)N2CCN(c3ccccn3)CC2)C[C@@H]2c3cccc4[nH]c(O)c(c34)C[C@H]21 | 8510 | 240 | 
COCCN1C[C@H](C(=O)N2CCN(c3ccccn3)CC2)C[C@@H]2c3cccc4[nH]c(Br)c(c34)C[C@H]21 |  | 1480 | 
CSc1[nH]c2cccc3c2c1C[C@@H]1[C@@H]3C[C@@H](C(=O)N2CCN(c3ccccn3)CC2)CN1C | 8510 | 2.4 | 
CN1C[C@H](C(=O)N2CCN(c3ccc(F)c(F)c3)CC2)C[C@@H]2c3cccc4[nH]c(Cl)c(c34)C[C@H]21 | 12900 | 0.603 | 
CN1C[C@@H](C(=O)N2CCN(c3cccc(=O)n3C)CC2)C[C@H]2c3cccc4[nH]c(Br)c(c34)C[C@@H]21 | 20400 | 417 | Kd [3]: 8130 nM; Kd [5]: 9330 nM; Kd [8]: 1950 nM; Kd [10]: 5370 nM; Kd [11]: 69200 nM
O=C([C@H]1CN[C@@H]2Cc3c(Br)[nH]c4cccc(c34)[C@H]2C1)N1CCN(c2ccccn2)CC1 | 7940 | 170 | 
CN1C[C@@H](C(=O)N2CCN(c3ccc4nonc4c3)CC2)C[C@H]2c3cccc4[nH]c(Br)c(c34)C[C@@H]21 | 12600 | 182 | Kd [3]: 5620 nM; Kd [5]: 3890 nM; Kd [8]: 501 nM; Kd [10]: 7240 nM; Kd [11]: 23400 nM
CCCCN1C[C@H](C(=O)N2CCN(c3ccccn3)CC2)C[C@@H]2c3cccc4[nH]c(Br)c(c34)C[C@H]21 |  | 1150 | 
CN1C[C@H](C(=O)N2CCN(c3ccc(F)c(F)c3)CC2)C[C@@H]2c3cccc4[nH]c(Br)c(c34)C[C@H]21 | 8130 | 0.49 | 
CN1C[C@H](C(=O)N2CCN(c3cccc(=O)n3C)CC2)C[C@@H]2c3cccc4[nH]c(Br)c(c34)C[C@H]21 [ERGOLINE] |  |  | pKb [4]: 8.85; pKb [12]: 7.85
CN1C[C@H](C(=O)N2CCN(c3ccc(Cl)cc3)CC2)C[C@@H]2c3cccc4[nH]cc(c34)C[C@H]21 | 2190 | 19.5 | 
